Holding throughout (assay type): biochemical
Common to all, as to conditions: Table 6; inhibit 50% of activity at 50 μM

One assay concerns the target T1, JAK3 (Homo sapiens, UniProt P52333).
T1 construct: The kinase domain of humanJAK3 was amplified from U937mRNA; His tag (from pFastBac HTb vector; nickel chelate purification) (N); made in house; host or cells: baculovirus; virus made in Sf9, large-scale expression in High Five insect cells
The experiment in a line: JAK3 kinase domain capture-based ELISA kinase assay. The protocol:
(§1) For screening purposes, compounds were diluted in 96 well plates at a concentration of 50 μM or 20 μM. Plates were warmed at 37° C. for 30 minutes before assay.
The kinase domain of humanJAK3 was amplified from U937mRNA using the polymerase chain reaction with the following primers: […]
JAK3 PCR products were cloned into the pFastBac HTb expression vector (Gibco) via the Xho I and Kpn I sites. The JAK3 plasmid was then transformed into competent DH10Bac cells (Gibco), and the recombinant baculovirus produced prepared for transfection into Sf9 insect cells.
(§2) Baculovirus preparations from each of the JAK family members were infected into five litres of High Five cells (Invitrogen) grown in High Five serum free medium (Invitrogen) to a cell density of approximately 1-2×10^6 cells/ml. Cells are infected with virus at a MOI of 0.8-3.0. Cells were harvested and lysed. JAK kinase domains were purified by affinity chromatography on a Probond (Invitrogen) nickel chelate affinity column.
(§3) The biotinylated substrate biotin-EGPWLEEEEEAYGWMDF-NH2 (SEQ ID NO:9) (final concentration 5 μM) was used as substrate, and tyrosine phosphorylation was quantitated following transfer to an avidin coated ELISA plate using peroxidase-linked anti-phospho-tyrosine antibody PY20.
(§4) Inhibitors were added to the assays fifteen minutes prior to the addition of ATP. Inhibitors were added in aqueous DMSO, with DMSO concentrations never exceeding 1%.
For orientation: ELISA stands for enzyme-linked immunosorbent assay.

Another assay concerns the target T2, JAK2 (Homo sapiens, UniProt O60674).
T2 construct: The kinase domain of humanJAK2 was amplified from U937mRNA; His tag (from pFastBac HTc vector; nickel chelate purification) (N); made in house; host or cells: baculovirus; virus made in Sf9, large-scale expression in High Five insect cells
The experiment in a line: JAK2 kinase domain capture-based ELISA kinase assay. How it is done: as §1
The kinase domain of humanJAK2 was amplified from U937mRNA using the polymerase chain reaction with the following primers: […]
JAK2 PCR products were cloned into the pFastBac HTc expression vector (Gibco) via the Sal I and Not I sites. The JAK2 plasmid was then transformed into competent DH10Bac cells (Gibco), and the recombinant baculovirus produced prepared for transfection into Sf9 insect cells.
as §2, §3, §4

The target of a further assay is T3, TYK2 (Homo sapiens, UniProt P29597).
T3 construct: The kinase domain of humanTYK2 was amplified from A549 mRNA; His tag (from pBlueBacHis2A vector; nickel chelate purification) (N); made in house; host or cells: baculovirus; virus made in Sf9, large-scale expression in High Five insect cells
T3 sequence (P29597 897-1176 limits assumed): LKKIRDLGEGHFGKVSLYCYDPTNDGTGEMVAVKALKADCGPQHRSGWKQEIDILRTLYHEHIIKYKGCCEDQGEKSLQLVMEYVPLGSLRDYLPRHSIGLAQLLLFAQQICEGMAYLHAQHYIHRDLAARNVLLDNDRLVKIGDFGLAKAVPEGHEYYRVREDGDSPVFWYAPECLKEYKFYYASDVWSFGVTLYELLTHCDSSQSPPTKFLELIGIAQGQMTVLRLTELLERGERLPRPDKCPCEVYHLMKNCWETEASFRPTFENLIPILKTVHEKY
The experiment in a line: TYK2 kinase domain capture-based ELISA kinase assay. The protocol:
as §1
The kinase domain of humanTYK2 was amplified from A549 mRNA using the polymerase chain reaction with the following primers: […]
TYK2 PCR products were cloned into pBlueBacHis2A (Invitrogen) via the EcoRI site. The recombinant TYK2 baculovirus produced was prepared for transfected into Sf9 insect cells.
as §2, §3, §4

In another assay the target is T4, JAK1 (Homo sapiens, UniProt P23458).
T4 construct: The kinase domain of humanJAK1 was amplified from U937mRNA; His tag (from pFastBac HTb vector; nickel chelate purification) (N); made in house; host or cells: baculovirus; virus made in Sf9, large-scale expression in High Five insect cells
T4 sequence (P23458 875-1153 limits assumed): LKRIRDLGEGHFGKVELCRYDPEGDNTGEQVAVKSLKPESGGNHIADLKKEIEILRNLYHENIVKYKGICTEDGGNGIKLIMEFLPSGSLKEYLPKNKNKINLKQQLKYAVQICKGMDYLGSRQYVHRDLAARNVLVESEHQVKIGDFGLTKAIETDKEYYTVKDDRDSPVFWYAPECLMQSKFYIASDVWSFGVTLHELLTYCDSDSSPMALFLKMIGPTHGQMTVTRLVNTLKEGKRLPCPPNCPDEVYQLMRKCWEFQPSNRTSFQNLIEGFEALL
The experiment in a line: JAK1 kinase domain capture-based ELISA kinase assay. How it is done: as §1
The kinase domain of humanJAK1 was amplified from U937mRNA using the polymerase chain reaction with the following primers: […]
JAK1 PCR products were cloned into the pFastBac HTb expression vector (Gibco) via the Xho I and Kpn I sites. The JAK1 plasmid was then transformed into competent DH10Bac cells (Gibco), and the recombinant baculovirus produced prepared for transfection into Sf9 insect cells.
as §2, §3, §4

pIC50: −log10 of the molar value.

T2 sequence (O60674 849-1124 limits assumed): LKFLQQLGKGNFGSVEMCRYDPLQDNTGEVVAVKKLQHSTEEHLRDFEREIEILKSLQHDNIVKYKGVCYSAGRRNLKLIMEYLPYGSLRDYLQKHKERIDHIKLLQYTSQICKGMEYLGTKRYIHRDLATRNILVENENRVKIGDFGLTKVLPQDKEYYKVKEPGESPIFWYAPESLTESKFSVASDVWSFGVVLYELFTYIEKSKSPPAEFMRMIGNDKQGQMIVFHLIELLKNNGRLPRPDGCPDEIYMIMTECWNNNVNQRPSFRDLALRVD
T1 sequence (P52333 822-1111 limits assumed): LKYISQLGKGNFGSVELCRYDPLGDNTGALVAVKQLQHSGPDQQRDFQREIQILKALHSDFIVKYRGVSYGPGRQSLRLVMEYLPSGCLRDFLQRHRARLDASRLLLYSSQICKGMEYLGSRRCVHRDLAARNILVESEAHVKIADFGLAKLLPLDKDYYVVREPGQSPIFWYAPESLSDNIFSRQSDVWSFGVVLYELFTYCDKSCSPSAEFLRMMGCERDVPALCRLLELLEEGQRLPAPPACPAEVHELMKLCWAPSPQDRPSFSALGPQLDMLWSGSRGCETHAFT

Turning to `CN(C)c1ccc(-c2cn3ccnc3c(NC3CC3)n2)cc1`, the negative logarithm of the IC50 (pIC50) at JAK3 was above 4.30; against JAK2, below 4.30; against TYK2, below 4.30; on JAK1 it was below 4.30.

For the compound `COc1ccccc1-c1cn2ccnc2c(Nc2ccc(CCO)cc2)n1`, the pIC50 on JAK3 was below 4.30; against JAK2 it was above 4.30; on TYK2, above 4.30; on JAK1, above 4.30.

With `Cc1ccc(Nc2nc(-c3ccccc3Cl)cn3ccnc23)cc1NS(C)(=O)=O`, the pIC50 was below 4.30 against JAK3, above 4.30 at JAK2, above 4.30 on TYK2 and above 4.30 on JAK1.

Consider `CC(=O)Nc1cccc(-c2cn3ccnc3c(Nc3ccc(N4CCOCC4)cc3)n2)c1`, for which the pIC50 at JAK3 was below 4.30; at JAK2, above 4.30; against TYK2, above 4.30; against JAK1 it was above 4.30.

Consider `OCCc1ccc(Nc2nc(-c3ccccc3F)cn3ccnc23)cc1`, for which the negative-log IC50 (pIC50) on JAK3, against JAK2, on TYK2 and at JAK1 was above 4.30 in each case.

For `O=C(O)c1cccc(-c2cn3ccnc3c(Nc3ccc4cn[nH]c4c3)n2)c1`, the negative logarithm of the IC50 (pIC50) against JAK3 was below 4.30; on JAK2, above 4.30; on TYK2, above 4.30; against JAK1 it was above 4.30.

`O=C(O)c1ccc(-c2cn3ccnc3c(Nc3ccc4cn[nH]c4c3)n2)cc1`: the pIC50 against JAK3 is below 4.30; against JAK2 it was above 4.30; on TYK2 it was above 4.30; on JAK1, above 4.30.

With `COc1ccc(Nc2nc(-c3ccccc3OC)cn3ccnc23)cn1`, the pIC50 at JAK3 was below 4.30; at JAK2 it was above 4.30; against TYK2, above 4.30; at JAK1, above 4.30.

For `c1coc(-c2cn3ccnc3c(Nc3ccc4[nH]ccc4c3)n2)c1`, the negative logarithm of the IC50 (pIC50) against JAK3 is below 4.30; against JAK2, above 4.30; against TYK2 it was above 4.30; at JAK1, above 4.30.

Regarding `Oc1cccc(-c2cn3ccnc3c(N3CCOCC3)n2)c1`, the negative logarithm of the IC50 (pIC50) is below 4.30 at JAK3, above 4.30 against JAK2, below 4.30 against TYK2 and below 4.30 against JAK1.

On to `CCCC/C=C/c1cn2ccnc2c(Nc2ccc(OC)nc2)n1`, for which the negative-log IC50 (pIC50) on JAK3 was below 4.30; at JAK2, above 4.30; against TYK2, below 4.30; at JAK1 it was below 4.30.

As for `COc1ccc(Nc2nc(-c3ccccc3Cl)cn3ccnc23)cn1`, the negative logarithm of the IC50 (pIC50) is below 4.30 at JAK3, above 4.30 against JAK2, below 4.30 at TYK2 and below 4.30 on JAK1.

`CCCC/C=C/c1cn2ccnc2c(NC2CCC(O)CC2)n1` (stereo not shown): the pIC50 is above 4.30 against JAK3, below 4.30 against JAK2, below 4.30 on TYK2 and below 4.30 against JAK1.

For `c1cncc(-c2cn3ccnc3c(NCCc3ccncc3)n2)c1`, the negative logarithm of the IC50 (pIC50) was above 4.30 against JAK3, below 4.30 against JAK2, below 4.30 at TYK2 and below 4.30 against JAK1.

For the compound `c1cncc(CCNc2nc(-c3ccco3)cn3ccnc23)c1`, the pIC50 was above 4.30 against JAK3, below 4.30 against JAK2, below 4.30 against TYK2 and below 4.30 against JAK1.

For `COc1ccc(Nc2nc(-c3c(C)cccc3C)cn3ccnc23)cn1`, the pIC50 on JAK3 was above 4.30; against JAK2 it was below 4.30; at TYK2, below 4.30; against JAK1 it was below 4.30.

With `c1ccc(CN2CC[C@@H](Nc3nc(-c4ccc5c(c4)OCO5)cn4ccnc34)C2)cc1`, the pIC50 was below 4.30 against JAK3, below 4.30 on JAK2, above 4.30 against TYK2 and below 4.30 against JAK1.

`Clc1ccccc1-c1cn2ccnc2c(Nc2ccc3[nH]ccc3c2)n1`: the pIC50 on JAK3 is below 4.30; against JAK2, above 4.30; on TYK2, above 4.30; against JAK1, above 4.30.

For `CN(C)CCNC(=O)c1ccc(-c2cn3ccnc3c(Nc3ccc(C(=O)O)cc3)n2)cc1`, the negative logarithm of the IC50 (pIC50) against JAK3, on JAK2, against TYK2 and against JAK1 was above 4.30 in each case.

A word on the pIC50: it is the IC50 on a negative log10 scale, so that one unit is a factor of ten.

(Values after patent US20060069084A1, “Methods of inhibiting kinases” (priority 2001, published 2006).)
